US20260034125A1, “N-PHENYL-1-(PHENYLSULFONYL)PIPERIDIN-4-AMINE DERIVATIVES AS CCR6 INHIBITORS” (priority 2023, published 2026)

Key:
Type in all cases: cell-based
human CCR6 [1] = target: T1, human CCR6 (Homo sapiens, UniProt P51684); experiment: CHO-K1 CCR6 chemotaxis assay towards CCL20; details: relative -LogIC50; CHO-K1 cells overexpressing human CCR6, 100 ng/ml CCL20, Transwell, 4 h
T1 sequence (P51684 1-374): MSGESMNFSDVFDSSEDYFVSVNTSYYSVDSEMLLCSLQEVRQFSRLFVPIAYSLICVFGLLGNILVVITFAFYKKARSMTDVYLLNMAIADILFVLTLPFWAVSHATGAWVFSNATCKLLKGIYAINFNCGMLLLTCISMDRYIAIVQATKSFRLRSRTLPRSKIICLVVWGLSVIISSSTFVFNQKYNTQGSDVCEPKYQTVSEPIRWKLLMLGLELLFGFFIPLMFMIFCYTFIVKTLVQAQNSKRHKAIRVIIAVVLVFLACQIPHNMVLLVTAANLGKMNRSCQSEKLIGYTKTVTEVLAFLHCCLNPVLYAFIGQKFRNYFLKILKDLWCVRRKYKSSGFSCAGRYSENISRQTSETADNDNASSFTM
Description: Cells overexpressing human CCR6 were used in the chemotaxis assay (DiscoverX, CAMP Hunter™ CHO-K1 CCR6 Gi Cell Line). Growth medium of these cells consisted of DMEM/F12, non-essential Amino acids (1×NEAA, Gibco 11140050), 10% FBS and 1× pen/strep (Gibco 15140). For the chemotaxis assay, Corning Transwell plates were used with a pore size of 8 μm (Corning 351164). Cells were harvested using trypsin and diluted to 4*10^6 cells/ml in chemotaxis medium (DMEM, 0.25% BSA, pen/strep). Compounds were four-fold serially diluted in DMSO. Further dilutions were made in chemotaxis medium. Cells were incubated with test compounds for 30 min at 37° C. prior to initiation of the assay (2*10^6 cells/ml). Final DMSO concentration in the assay was 0.2%. Wells of the Transwell plates were filled with 200 μl chemotaxis medium containing 100 ng/ml CCL20 (R&D systems 360-MP). 50 μl of the cell/compound suspension was added to the inserts of the Transwell plates (100,000 cells/insert). The Transwell plates were placed in an incubator at 37° C., 5% CO2 for 4 h. After 4 h, the number of migrated cells was quantified using CellTiter Glo (Promega). Percentage inhibition values were calculated based on the low and high signal obtained with 0.2% DMSO in chemotaxis medium without and with CCL20, respectively. The relative-LogIC50 was determined with GraphPad Prism 9 using a four-parameter dose-response model.

Human CD4+ T cells = experiment: CD4+ T cell chemotaxis assay towards CCL20; details: relative -LogIC50, 150 ng/ml CCL20, Transwell, 3 h
Description: Human CD4+ T cells were isolated from buffy coats of healthy donors using a CD4+ T Cell Isolation Kit (Miltenyi Biotec130-096-533). Isolated T cells were stimulated overnight with anti-CD3 and anti-CD28 antibodies (Biolegend 300314/302934) in growth medium (RPMI1640, 10% heat-inactivated FBS, 1× pen/strep (Gibco 15140)). For the chemotaxis assay, Corning Transwell plates were used with a pore size of 5 μm (Corning 3388). T cells were counted and diluted to 6*10^6 cells/ml in chemotaxis medium (RPMI1640, 1% BSA, pen/strep). Compounds were four-fold serially diluted in DMSO. Further dilutions were made in chemotaxis medium. Cells were incubated with test compounds for 30 min at 37° C. prior to initiation of the assay (3*10^6 cells/ml). Final DMSO concentration in the assay was 0.2%. Wells of the Transwell plates were filled with 200 μl chemotaxis medium containing 150 ng/ml CCL20 (R&D systems 360-MP). 50 μl of the cell/compound suspension was added to the inserts of the Transwell plates (150,000 cells/insert). The Transwell plates were placed in an incubator at 37° C., 5% CO2 for 3 h. After 3 h, the number of migrated cells was quantified using CellTiter Glo (Promega). Percentage inhibition values were calculated based on the low and high signal obtained with 0.2% DMSO in chemotaxis medium without and with CCL20, respectively. The relative −LogIC50 was determined with GraphPad Prism 9 using a four-parameter dose-response model.

human CCR6 [2] = target: T1, human CCR6; experiment: Human CCR6-Cre reporter assay; set-up: The second construct contained the open reading frame of human CCR6 in the pUNO1 backbone; host or cells: 293 FT cells; details: relative -LogIC50; transfected 293 FT cells, 6 μM Forskolin, 6 nM CCL20, luciferase readout, 5h
Procedure: 293 FT cells were transfected with 2 constructs using TransIT-293 (Mirus). The first construct (pGL4.29, Promega) expressed the luciferase reporter gene luc2P in response to the binding of cAMP-induced CREB to the CRE element in its promoter. The second construct contained the open reading frame of human CCR6 in the pUNO1 backbone under the control of an enhanced CMV promoter (In VivoGen). 48h after transfection, cells were harvested and diluted to 750,000 cells/ml in culture medium (DMEM, 10% FBS, 1× pen/strep (Gibco 15140)). Compounds were 2.5-fold serially diluted in DMSO. Further dilutions were made in assay medium (DMEM, 10% FBS, 1× pen/strep, 6 μM Forskolin, 6 nM CCL20). 4 μl of the compound solution was added to a white MW384 plate, followed by 20 μl of the cell suspension. Final DMSO concentration in the assay was 0.1%. The MW384 plate was placed in an incubator at 37° C., 5% CO2 for 5h. Luciferase activity was determined by addition of 24 μl of a 2.5× diluted BriteLite luciferase solution (Perkin Elmer), followed by luminescence measurement using a VICTOR Plate reader (Perkin Elmer). […] The relative-LogIC50 was determined with GraphPad Prism 9 using a four-parameter dose-response model.

Structure (SMILES) | IC50 (human CCR6 [1]) [nM] | IC50 (Human CD4+ T cells) [nM] | IC50 (human CCR6 [2]) [nM]
Cc1cnc2ccc(-c3ccc(S(=O)(=O)N4CCC(Nc5ccc(C6(C(F)(F)F)CC6)cc5)CC4)cc3)cn12 [Example 3, 1-(4-{3-methylimidazo[1,2-a]pyridin-6-yl}benzenesulfonyl)-N-{4-[1-(trifluoromethyl)cyclopropyl]phenyl}piperidin-4-amine] | 63.1 |  | 79.4
CNC(=O)c1ccc(-c2ccc(S(=O)(=O)N3CCC(Nc4ccc(C5(C(F)(F)F)CC5)cc4)CC3)cc2)cn1 [Example 6, N-methyl-5-(4-{[4-({4-[1-(trifluoromethyl)cyclopropyl]phenyl}Amino)piperidin-1-yl]sulfonyl}phenyl)pyridine-2-carboxamide] | 126 |  | 126
NC(=O)c1ccc(-c2ccc(S(=O)(=O)N3CCC(Nc4ccc(C5(C(F)(F)F)CC5)cc4)CC3)cc2)cc1 [Example 7, 4′-{[4-({4-[1-(trifluoromethyl)cyclopropyl]phenyl}Amino)piperidin-1-yl]sulfonyl}-[1,1′-biphenyl]-4-carboxamide] | 126 |  | 200
N#Cc1c[nH]c2ccc(-c3ccc(S(=O)(=O)[C@H]4CC[C@H](Nc5ccc(C6COC6)cc5)CC4)cc3)cc12 [Example 19, 5-(4-{[trans-4-{[4-(oxetan-3-yl)phenyl]Amino}cyclohexyl]sulfonyl}phenyl)-1H-indole-3-carbonitrile] | 251 |  | 63.1

Now those with a lower IC50 (human CCR6 [1]), led by results:

IC50 (human CCR6 [1]) [nM] | IC50 (Human CD4+ T cells) [nM] | IC50 (human CCR6 [2]) [nM] | Structure (SMILES)
20 | 7.94 | 31.6 | NC(=O)c1cc(-c2ccc(S(=O)(=O)N3CCC(Nc4ccc(C5(C(F)(F)F)CC5)cn4)CC3)cc2)ccn1 [Example 45, 4-(4-{[4-({5-[1-(trifluoromethyl)cyclopropyl]pyridin-2-yl}amino)piperidin-1-yl]sulfonyl}phenyl)pyridine-2-carboxamide]
15.8 | 2 | 63.1 | Cc1cc(-c2ccc(S(=O)(=O)N3CCC(Nc4ccc(C5(C(F)(F)F)CC5)cn4)CC3)cc2)cn2c(C(C)C)nnc12 [Example 46, N-(1-{4-[8-methyl-3-(propan-2-yl)-[1,2,4]triazolo[4,3-a]pyridin-6-yl]benzenesulfonyl}piperidin-4-yl)-5-[1-(trifluoromethyl)cyclopropyl]pyridin-2-amine]
15.8 | 0.631 | 50.1 | CC(C)c1nnc2ccc(-c3ccc(S(=O)(=O)N4CCC(Nc5ccc(C6(C(F)(F)F)CC6)cc5)CC4)cc3)cn12 [Example 40, 1-{4-[3-(propan-2-yl)-[1,2,4]triazolo[4,3-a]pyridin-6-yl]benzenesulfonyl}-N-{4-[1-(trifluoromethyl)cyclopropyl]phenyl}piperidin-4-amine]
6.31 | 6.31 | 50.1 | O=S(=O)(c1ccc(-c2ccc3nnc(C(F)F)n3c2)cc1)N1CCC(Nc2ccc(C3(C(F)(F)F)CC3)cn2)CC1 [Example 44, N-(1-{4-[3-(difluoromethyl)-[1,2,4]triazolo[4,3-a]pyridin-6-yl]benzenesulfonyl}piperidin-4-yl)-5-[1-(trifluoromethyl)cyclopropyl]pyridin-2-amine]
3.98 |  | 100 | CC(C)c1cnc2ccc(-c3ccc(S(=O)(=O)[C@H]4CC[C@H](Nc5ccc(C6(C(F)(F)F)CC6)cc5)CC4)cc3)cn12 [Example 20, N-[trans-4-{4-[3-(propan-2-yl)imidazo[1,2-a]pyridin-6-yl]benzenesulfonyl}cyclohexyl]-4-[1-(trifluoromethyl)cyclopropyl]aniline]
